Read-outs that look alike come from different tables or passages of the source.
What was measured:
EGFR kinase = molecular target: T1, EGFR kinase (Homo sapiens, UniProt P00533); experiment: Kinase assay for EGFR (TR-FRET LanthaScreen); type: biochemical; conditions: % inhibition at 100 nM or IC50 (nM)
T1 construct: purchased Invitrogen PV3872
Description: The extent to which the compounds of the present invention modulate EGFR kinase activity can be determined using time-resolved Fret (TR-FRET) assay (LanthaScreen® kinase activity assay, from Invitrogen). The assay employs EGFR kinase (PV3872, Invitrogen), Tb-Py20 antibody (PV3552, Invitrogen) and fluorescein-poly GT (PV3610, In vitrogen)
The assay is performed in a Black 384-well plate (available from Corning). EGFR kinase (is diluted in TR-FRET Dilution Buffer (PV3189, InVitrogen) at concentration of 0.4 ug/ml as stock solution, and then 2-fold serial diluted. Addition of 1 mM ATP initiated the reaction, and the reaction is incubated for 1 h reaction at room temperature. 10 μL of the Tb-antibody (from Invitrogen)+EDTA (from Invitrogen) solution prepared was added to each well of the assay plate and mix briefly, and incubated for 30 min. The signal is monitored by using M5 microplate reader (Ex=332 nm, Em=488 nm and 518 nm). Each compound is tested in duplicate wells. EGFR without compound is used as control. Staurosporine (available from Sigma) is used as positive control compound. Inhibition was calculated as percentage of the EGFR activity (without compound)

BT474 cells = experiment: Cell proliferation inhibition assay for BT474 (CCK-8); type: cell-based; conditions: Homo sapiens, BT-474; 72 h, 8 points
Description: Human breast cancer BT474 cells was cultured in low glucose DMEM (Life Technologies 12320-032) containing 10% fetal bovine serum (FBS) at 37° C. in a humidified 10% CO2, 90% air incubator. Cells were harvested using trypsin/EDTA, counted using a haemocytometer, and plated 10000 cell/well in a 96-well clear tissue culture plate. The cells were incubated for 24 h at 37° C. to allow adherence. A serials of concentrations of each compound (ranging from 30 uM to […], 5-fold dilution) in 96-well plate, and incubated for 72 h. Each concentration was tested in triplicate wells. During the cell proliferation assay, BT474 cells were cultured in low-glucose DMEM containing 5% FBS, 50 ug/ml gentamicin, and 0.3% v/v DMSO. The culture medium was removed via aspiration, and the cell viability was detected by using CCK-8 cell proliferation kit.

[1] = Pharmacokinetic study in mouse; type: in vivo; set-up: clearance: unit not given here; conditions: for AUC(0-inf): read-out: AUC0-inf-obs; for half-life: read-out: T½ (converted)
Description: (§1) The dog PK protocol is shown here, while PK study protocol of mouse and rat are similar to dog. Beagle dogs of this study were 6-8 month old and weighed 8 to 10 kg. Example 4 was dissolved in 2% DMA and 98% (40% HP-β-CD in deionized water) to yield concentration at 2 mg/mL for both intravenous (IV, a bolus injection via the lateral tail vein) and oral (PO, via oral gavage) administrations. Blood samples (approximately 1 ml) was collected via cephalic into tubes containing EDTA-K3 anticoagulant pre-dose and post-dose at 5 min, 15 min, 30 min, 1 h, 2 h, 4 h, 6 h, 8 h and 24 h. Blood samples were centrifuged at approximately 8000 rpm for 6 minutes at 2-8° C. and the resulting plasma were separated, labeled and stored frozen at approximately −80° C. Plasma samples analysis was performed by means of LC-MS/MS. The analytical results were confirmed using quality control samples for intra-assay variation.

[2] = Pharmacokinetic study in rat; type: in vivo; set-up: clearance: unit not given here; conditions: for AUC(0-inf): read-out: AUC0-inf-obs; for half-life: read-out: T½ (converted)
Description: as §1

[3] = Pharmacokinetic study in dog; type: in vivo, Beagle dogs; set-up: clearance: unit not given here; conditions: for AUC(0-inf): read-out: AUC0-inf-obs; for half-life: read-out: T½ (converted)
Description: as §1

NCI-N87 xenograft = experiment: Anticancer effect against NCI-N87 xenograft; type: in vivo, Balb/c nude mice
Description: (§2) NCI-N87 cells were purchased from ATCC, and were cultured in RPMI1640+10% FBS+1% P/S antibiotics. Balb/c nude mice were male, 6-8 week old, and weighed 18^±2 g. The cells were implanted subcutaneously into the nude mice (right flank) with 5.0×10^6 cells in 0.1 ml PBS. When the tumor size reached a volume of 200 (150-200) mm^3, the tumor-bearing nude mice derived from NCI-N87 cells were randomly assigned into four groups (10 mice/group). All groups were dosed oral, BID. One group were dosed with vehicle, one group with Lapatinib (75 mg/kg of free base, in the form of ditosylate monoydrate), and the rest two groups with Example 4 (50, 100 mg/kg, p.o. Bid, respectively). The administration period lasted 4 weeks. The tumor volume were measured twice a week, and the body weight were measured immediately before measuring the tumor volume throughout the whole study. On day 11 after initiation of the treatment, the dosing of Example 4 at 100 mg/kg was suspended, and the dosing of the group was resumed on day 15 at a reduced dose of 75 mg/Kg. […] (See FIG. 1).

[4] = Body weight change of NCI-N87 xenograft mice; type: in vivo, Balb/c nude mice; conditions: po
Description: as §2, with “study.” for “study. On day 11 after initiation of the treatment, the dosing of Example 4 at 100 mg/kg was suspended, and the dosing of the group was resumed on day 15 at a reduced dose of 75 mg/Kg.”

[5] = mouse; cited from earlier work
[6] = rat; cited from earlier work
[7] = dog; cited from earlier work
[8] = plasma, IV, 2 mg/Kg, read-out: Vz

T1 sequence (P00533 25-1210): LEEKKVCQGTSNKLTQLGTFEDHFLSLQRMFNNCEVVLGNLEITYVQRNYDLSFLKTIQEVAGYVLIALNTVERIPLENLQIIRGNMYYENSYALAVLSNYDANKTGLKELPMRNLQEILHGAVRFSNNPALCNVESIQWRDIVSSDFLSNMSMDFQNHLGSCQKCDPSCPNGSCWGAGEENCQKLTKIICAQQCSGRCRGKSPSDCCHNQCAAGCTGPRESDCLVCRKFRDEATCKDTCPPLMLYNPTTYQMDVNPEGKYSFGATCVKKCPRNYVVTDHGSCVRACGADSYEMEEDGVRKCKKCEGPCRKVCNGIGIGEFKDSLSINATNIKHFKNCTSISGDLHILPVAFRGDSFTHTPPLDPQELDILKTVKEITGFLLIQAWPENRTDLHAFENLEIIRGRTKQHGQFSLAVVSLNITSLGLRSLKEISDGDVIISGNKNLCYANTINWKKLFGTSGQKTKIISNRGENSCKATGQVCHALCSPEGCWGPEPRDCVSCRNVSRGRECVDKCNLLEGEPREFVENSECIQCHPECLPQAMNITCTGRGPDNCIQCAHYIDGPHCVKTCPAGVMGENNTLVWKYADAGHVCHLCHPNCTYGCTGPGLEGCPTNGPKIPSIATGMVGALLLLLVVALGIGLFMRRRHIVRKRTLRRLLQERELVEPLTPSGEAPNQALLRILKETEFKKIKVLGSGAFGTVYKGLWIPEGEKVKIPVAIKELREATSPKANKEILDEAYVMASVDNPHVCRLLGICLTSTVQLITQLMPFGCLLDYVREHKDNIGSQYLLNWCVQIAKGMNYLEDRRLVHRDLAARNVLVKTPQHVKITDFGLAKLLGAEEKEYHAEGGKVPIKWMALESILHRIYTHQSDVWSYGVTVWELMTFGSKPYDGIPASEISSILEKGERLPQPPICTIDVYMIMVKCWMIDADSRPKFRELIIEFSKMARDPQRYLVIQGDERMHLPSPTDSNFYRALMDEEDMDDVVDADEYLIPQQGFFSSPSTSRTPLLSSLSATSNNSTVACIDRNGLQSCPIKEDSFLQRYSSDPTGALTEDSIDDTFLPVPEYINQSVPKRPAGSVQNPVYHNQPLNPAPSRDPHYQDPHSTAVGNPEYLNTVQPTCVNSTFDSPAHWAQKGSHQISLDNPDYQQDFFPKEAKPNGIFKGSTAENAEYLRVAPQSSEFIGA

CP1(=O)CCN(CC#Cc2ccc3ncnc(Nc4ccc(OCc5cccc(F)c5)c(Cl)c4)c3c2)CC1 [Example 4, N-(3-chloro-4-(3-fluorobenzyloxy)phenyl)-6-(3-(4-methyl-1,4-azaphosphino-1-yl)prop-1-ynyl)quinazolin-4-amine]
EGFR inhibition inhibit % at 100 nM or IC50 (nM) (EGFR kinase): ++ (>50% inhibition at 100 nM, or IC50 <100 nM for EGFR or ErbB2 kinases)
IC50 (BT474 cells): < 100 nM
F ([1]; PO, 10 mg/Kg): 36%
AUC(0-t) ([1]; plasma, IV, 2 mg/Kg): 5070 ng·h/mL
Cmax ([1]; plasma, IV, 2 mg/Kg): 1520 ng/mL
clearance ([1]; plasma, IV, 2 mg/Kg): 6.5
AUC(0-inf) ([1]; plasma, IV, 2 mg/Kg): 5080 ng·h/mL
half-life ([1]; plasma, IV, 2 mg/Kg): 0.59 h
Vd [1, 8]: 0.33 L
AUC(0-t) ([1]; plasma, PO, 10 mg/Kg): 8830 ng·h/mL
Cmax ([1]; plasma, PO, 10 mg/Kg): 2840 ng/mL
AUC(0-inf) ([1]; plasma, PO, 10 mg/Kg): 9060 ng·h/mL
half-life ([1]; plasma, PO, 10 mg/Kg): 1.41 h
F ([2]; PO, 10 mg/Kg): 89.6%
AUC(0-t) ([2]; plasma, IV, 2 mg/Kg): 2130 ng·h/mL
Cmax ([2]; plasma, IV, 2 mg/Kg): 1570 ng/mL
clearance ([2]; plasma, IV, 2 mg/Kg): 15.3
AUC(0-inf) ([2]; plasma, IV, 2 mg/Kg): 2180 ng·h/mL
half-life ([2]; plasma, IV, 2 mg/Kg): 19.9 h
Vd [2, 8]: 7.92 L
AUC(0-t) ([2]; plasma, PO, 10 mg/Kg): 9700 ng·h/mL
Cmax ([2]; plasma, PO, 10 mg/Kg): 1800 ng/mL
AUC(0-inf) ([2]; plasma, PO, 10 mg/Kg): 9780 ng·h/mL
half-life ([2]; plasma, PO, 10 mg/Kg): 11.5 h
F ([3]; PO, 10 mg/Kg): 100%
AUC(0-t) ([3]; beagle, plasma, IV, 2 mg/Kg): 1480 ng·h/mL
Cmax ([3]; beagle, plasma, IV, 2 mg/Kg): 1150 ng/mL
clearance ([3]; beagle, plasma, IV, 2 mg/Kg): 22.3
AUC(0-inf) ([3]; beagle, plasma, IV, 2 mg/Kg): 1490 ng·h/mL
half-life ([3]; beagle, plasma, IV, 2 mg/Kg): 2.46 h
Vd ([3]; beagle, plasma, IV, 2 mg/Kg, read-out: Vz): 1.44 L
AUC(0-t) ([3]; beagle, plasma, PO, 10 mg/Kg): 7640 ng·h/mL
Cmax ([3]; beagle, plasma, PO, 10 mg/Kg): 2380 ng/mL
AUC(0-inf) ([3]; beagle, plasma, PO, 10 mg/Kg): 7720 ng·h/mL
half-life ([3]; beagle, plasma, PO, 10 mg/Kg): 3.8 h
tumor growth inhibition rate (NCI-N87 xenograft; 50 mg/Kg, p.o. BID, 4 weeks): 85%
tumor growth inhibition rate (NCI-N87 xenograft; 100/75 mg/Kg, p.o. BID, 4 weeks (suspended, resumed at 75 mg/Kg)): 88%
body weight loss (average) ([4]; 100 mg/Kg, bid, day 10): 16.9%
body weight after dosing suspension and resumption ([4]; suspension for 3 days, resumed at 75 mg/kg): recovered and remained normal

C#Cc1cc(Nc2ncnc3ccc(-c4ccc(CN5CCP(C)(=O)CC5)o4)cc23)ccc1OCc1cccc(F)c1 [Example 23, N-(4-(3-fluorobenzyloxy)-3-ethynylphenyl)-6-(5-((4-methyl-1,4-azaphosphino-1-yl)methyl)furan-2-yl)quinazolin-4-amine]
EGFR inhibition inhibit % at 100 nM or IC50 (nM) (EGFR kinase): ++ (>50% inhibition at 100 nM, or IC50 <100 nM for EGFR or ErbB2 kinases)
IC50 (BT474 cells): 100 to 1000 nM

Cc1cccc(COc2ccc(Nc3ncnc4ccc(-c5ccc(CN6CCP(C)(=O)CC6)o5)cc34)cc2Cl)[n+]1[O-] [Example 24, 2-((2-chloro-4-(6-(5-((4-methyl-1,4-azaphosphino-1-yl)methyl)furan-2-yl)quinazolin-4-ylamino)phenoxy)methyl)-6-methylpyridine 1-oxide]
EGFR inhibition inhibit % at 100 nM or IC50 (nM) (EGFR kinase): ++ (>50% inhibition at 100 nM, or IC50 <100 nM for EGFR or ErbB2 kinases)
IC50 (BT474 cells): 100 to 1000 nM

CP(C)(=O)CCNCc1ccc(-c2ccc3ncnc(Nc4ccc5c(cnn5Cc5cccc(F)c5)c4)c3c2)o1 [Example 25, 6-(5-((2-(dimethylphosphinoyl)ethylamino)methyl)furan-2-yl)-N-(1-(3-fluorobenzyl)-1H-indazol-5-yl)quinazolin-4-amine]
EGFR inhibition inhibit % at 100 nM or IC50 (nM) (EGFR kinase): ++ (>50% inhibition at 100 nM, or IC50 <100 nM for EGFR or ErbB2 kinases)
IC50 (BT474 cells): 100 to 1000 nM

CCN(CCP(C)(C)=O)Cc1ccc(-c2ccc3ncnc(Nc4ccc5c(cnn5Cc5cccc(F)c5)c4)c3c2)o1 [Example 26]
EGFR inhibition inhibit % at 100 nM or IC50 (nM) (EGFR kinase): ++ (>50% inhibition at 100 nM, or IC50 <100 nM for EGFR or ErbB2 kinases)
IC50 (BT474 cells): 100 to 1000 nM

CP(C)(=O)CCN(CCO)Cc1ccc(-c2ccc3ncnc(Nc4ccc5c(cnn5Cc5cccc(F)c5)c4)c3c2)o1 [Example 27, 2-(N-((5-(4-(1-(3-fluorobenzyl)-1H-indazol-5-ylamino)quinazolin-6-yl)furan-2-yl)methyl)-N-(2-(dimethylphosphinoyl)ethyl)amino)ethanol]
EGFR inhibition inhibit % at 100 nM or IC50 (nM) (EGFR kinase): ++ (>50% inhibition at 100 nM, or IC50 <100 nM for EGFR or ErbB2 kinases)
IC50 (BT474 cells): < 100 nM

CP1(=O)CCN(CC#Cc2ccc3ncnc(Nc4ccc5c(cnn5Cc5cccc(F)c5)c4)c3c2)CC1 [Example 28, N-(1-(3-fluorobenzyl)-1H-indazol-5-yl)-6-(3-(4-methyl-1,4-azaphosphino-1-yl)prop-1-ynyl)quinazolin-4-amine]
EGFR inhibition inhibit % at 100 nM or IC50 (nM) (EGFR kinase): ++ (>50% inhibition at 100 nM, or IC50 <100 nM for EGFR or ErbB2 kinases)
IC50 (BT474 cells): 100 to 1000 nM

CS(=O)(=O)CCNCc1ccc(-c2ccc3ncnc(Nc4ccc(OCc5cccc(F)c5)c(Cl)c4)c3c2)o1 [lapatinib, Lapatinib]
tumor growth inhibition rate (NCI-N87 xenograft; 75 mg/Kg of free base, oral BID, 4 weeks): 48%
oral bioavailability (F) [5]: 32%
oral bioavailability (F) [6]: 29%
oral bioavailability (F) [7]: 63%

From patent US8987284B2, “Phosphorus containing quinazoline compounds and methods of use” (Newgen Therapeutics, Inc., priority 2009, dated 2015)
